Assay results published in patent US20050209147A1, “Peptide inhibitors of RhoA signaling” (The Board of Trustees of the Leland Stanford Junior …, priority 2004, published 2005).

Assays:
ζ PKC = test: Measurement of ζ PKC kinase activity; assay type: cell-based; details: 150 nM Wortmannin or 30 μM LY294002, 30 min, lymphocytes
Procedure: Measurement of ζ PKC kinase activity. The assay was performed as previously described. Briefly, lymphocytes were stimulated under stirring with agonists at 37° C. Stimulation was stopped with lysis buffer containing 50 mM Tris-HCl, pH 7.5, 1% Triton X-100, 0.01% SDS, 150 mM NaCl, 50 mM NaF, 10 mM sodium pyrophosphate, 1 μM phenylarsine oxide, containing the Complete™ protease inhibitor cocktail from Roche. After 30 min. on ice, lysates were centrifuged at 16,000 g for 1 min. to remove cell debris. Rabbit polyclonal anti ζ PKC (1 μg) or control rabbit serum was added to equal amount of cell lysates, followed by immunoprecipitation with trisacryl protein A. Equal amounts of ζ PKC were immunoprecipitated as confirmed by Western blot analysis. After four washing, immunoprecipitates were subjected to the kinase reaction for 30 min. at 30° C. in 50 μl of kinase buffer containing 0.5 mM EGTA, 10 mM MgC2, 20 mM HEPES, pH 7.4, 50 μM ATP, 5 μCi [γ-^32P]ATP and 2 μg myelin basic protein (MBP) as a substrate. The reaction was stopped by addition of 5% TCA and the reaction mixture was filtered through phosphocellulose paper. After four rinses with 1% phosphoric acid radioactivity on the filter was determined at a scintillation counter.

[1] = system: LFA-1 high affinity state; test: Measurement of LFA-1 high affinity state (soluble 125I-ICAM-1 binding); assay type: cell-based, mouse; details: 1 μM CCL21 2 min
Procedure: Measurement of LFA-1 high affinity state. Induction of LFA-1 high affinity state by CCL21 was evaluated by measuring binding of soluble ^125I-ICAM-1. Briefly, ICAM-1 was iodinated with ^125NaI by the Chizzonite method. The binding assay was performed at 37° C. in a 500 μl Eppendorf tube. 40 μl of lymphocyte suspension (5×10^7/ml in PBS containing 1 mg/ml BSA, 2 mM MgCl2, 1 mM CaCl2, 1 mM D-glucose, pH 7.2) were directly layered on […] oil cushion of 2/1 dibutyl/dioctyl phthalates. Lymphocytes were stimulated with 10 μl of PBS containing chemokine (6 μM) and ^125I-ICAM-1 (5×10^5 CPM corresponding approximately to 2 μg of ^125I-ICAM-1). The binding reaction was stopped by rapid centrifugation in microfuge. Radioactivity bound to lymphocytes was counted with a gamma counter.

[2] = system: CCL21-induced LFA-1-dependent lymphocyte adhesion to ICAM-1; test: In vitro rapid adhesion assay on ICAM-1; assay type: cell-based, mouse; details: 1 μM CCL21; for rapid adhesion induced by CCL21 on high density of ICAM-1: high density of ICAM-1 (˜5000 sites/μm^2); for rapid adhesion induced by CCL21 on low density of ICAM-1: low density of ICAM-1 (−500 sites/μm^2)
Procedure: In vitro rapid adhesion assay on ICAM-1. ICAM-1 was purified from mouse spleens and adhesion assays were performed as previously reported. Briefly, primary naïve lymphocytes (about 70% T-, 30% B-cells) were isolated from peripheral and mesenteric lymph nodes and Peyer's patches from young BALB/c mice (Harlan, Italy). Adhesion assays were performed on eighteen well glass slides coated overnight at 4° C. with purified mouse ICAM-1; site density per square micrometer of immobilized ICAM-1 was calculated as reported.

LFA-1 lateral mobility = test: LFA-1 distribution on plasma membrane (confocal microscopy); assay type: cell-based, mouse; details: 1 μM CCL21 2 min
Procedure: Evaluation of LFA-1 distribution on plasma membrane. Analysis and quantification of chemokine-induced LFA-1 surface distribution was determined by confocal microscopy, following the same procedure previously described. Briefly, lymphocytes were stimulated in suspension under stirring and then immediately fixed in 1% ice-cold paraformaldehyde in PBS, pH 7.4, for 10 min. Cell were washed and incubated with 10 μg/ml of TIB213 rat anti-mouse LFA-1 (ATCC) for 30 min on ice, washed 3 times and then incubated 30 min with Texas Red-conjugated goat anti-rat secondary antibody. The washed cells adhered for 30 min at 4° C. on 0.1% poly-L-lysine coated round 13 mm glass coverslips and were analyzed with a Carl Zeiss LSM 510 confocal imaging system, with a 63×C-Apochromat objective (NA 1.2). Definition and quantitative analysis of “disperse” and “clustered” morphologies of LFA-1 distribution was as previously described.

[3] = system: lymphocyte rolling and arrest on PP-HEV; test: Intravital video microscopy of lymphocyte-high endothelial venule interaction in Peyer's patches; assay type: in vivo, mouse
Procedure: Intravital video microscopy analysis of lymphocyte-high endothelial venule interaction in Peyer's patches. Lymphocytes (5×10^6/ml in DMEM without sodium bicarbonate supplemented with 20 mM Hepes, 5% FCS, pH7.1) were labeled with either CMFDA or CMTMR for 30 min at 37° C. 30×10^6 labeled cells were injected iv. In situ videomicroscopic analyses were carried out in high endothelial venules (HEV) in the secondary lymphoid organ Peyer's patch (PP) as previously described. Cell behavior was analyzed over a period of 20-30 min starting at 2 minutes after iv injection. Interactions of ≧1 s were considered significant and were scored. Cells were considered to be interacting whether they rolled, arrested or both. Lymphocytes that remained firmly adherent on venular wall for ≧10 s were considered arrested.

[4] = system: ζ PKC translocation to the plasma membrane; test: ζ PKC intracellular distribution (sucrose gradient, immunoblot); assay type: cell-based; details: CCL21 30 seconds; for ζ PKC translocation to the plasma membrane induced by CCL21: lymphocytes, 30 min pretreatment
Procedure: ζ PKC intracellular distribution. The assay was performed as previously described. Briefly, lymphocytes were stimulated under stirring with agonists at 37° C. Stimulation was stopped by diluting the cells in a 10 times larger volume of ice-cold PBS. Cells, resuspended in 1 ml of ice-cold PBS containing 8% sucrose, containing the Complete™ protease inhibitor cocktail from Roche, were sonicated and the homogenates were centrifuged at 800×g/10 min to remove nuclei and unbroken cells. The postnuclear supernatant was loaded on discontinuous sucrose gradient (50% sucrose, 30% sucrose) and centrifuged for 120 min. at 100,000×g. The light membrane fraction (plasma membrane) was collected in the 30% layer. Following SDS-PAGE on 10% acrylamide, proteins were electroblotted on nitrocellulose filters, probed with rabbit polyclonal antibodies anti ζ PKC (Santa Cruz Biotechnology), followed by goat polyclonal anti-rabbit HRP conjugated (Sigma) and developed using ECL (Amersham).

[5] = system: autoreactive, encephalitogenic T lymphocytes in inflamed brain microvessels; test: Intravital microscopy of Ag-stimulated lymphocyte recruitment in inflamed brain microvessels; assay type: in vivo; details: mouse model simulating human Multiple Sclerosis
Procedure: The RhoA derived peptides described in Example 1 were tested for their ability to inhibit Ag-stimulated lymphocyte (autoreactive, encephalitogenic T lymphocytes) recruitment in inflamed brain by looking in vivo cell behavior with intravital microscopy, as described in Example 1. This in vivo model simulates, in mouse, human Multiple Sclerosis.

[6] = biological target: T1, RhoA binding to Citron-RBD (Homo sapiens, UniProt O14578); test: Affinity-precipitation (pull-down) of GTP-Val14-RhoA with Citron GST-RBD; details: 20 μg of domain, anti-RhoA immunoblot
T1 sequence (O14578 1091-1302 limits assumed): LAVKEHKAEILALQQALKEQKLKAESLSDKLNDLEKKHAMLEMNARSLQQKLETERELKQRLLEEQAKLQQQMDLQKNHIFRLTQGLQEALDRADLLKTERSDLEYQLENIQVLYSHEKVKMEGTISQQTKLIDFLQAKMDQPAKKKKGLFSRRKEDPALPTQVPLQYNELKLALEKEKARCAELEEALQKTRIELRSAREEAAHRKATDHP
Procedure: (§1) Specificity of RhoA fusion domains and measurement of RhoA activation. The specificity of P1-RhoA fusion domains was evaluated by affinity-precipitation assay using the rho-binding domain (RBD) from Citron, Rhotekin and ROCK. Recombinant Val14-RhoA was loaded with 1 mM GTP at 37° C. for 90 min. 10 μg of Citron, Rhotekin or ROCK GST-RBD conjugated with glutathione beads were mixed with 5 μg of GTP-Val14-RhoA in […] of 50 mM Tris-HCl (pH 7.4), 5 mM MgCl2, 0.5 mM GTP, 2 mg/ml BSA (binding buffer). Binding was for 60 min. at 15° C. The beads were washed twice with binding buffer and subjected to SDS-polyacrylamide gel electrophoresis on a 12% gel. RhoA background binding to glutathione beads was negligible. In case of experiments in presence of P1-RhoA fusion domains, the domains were previously dissolved in binding buffer at 1 mg/ml.

[7] = biological target: T2, RhoA binding to Rhotekin-RBD (Homo sapiens, UniProt Q9BST9); test: Affinity-precipitation (pull-down) of GTP-Val14-RhoA with Rhotekin GST-RBD; details: 20 μg of domain, anti-RhoA immunoblot
T2 sequence (Q9BST9 17-98 limits assumed): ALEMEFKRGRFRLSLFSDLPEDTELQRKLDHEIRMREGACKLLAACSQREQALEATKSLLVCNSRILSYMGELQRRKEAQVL
Procedure: as §1

[8] = system: Swiss 3T3 mouse fibroblasts; test: LPA-induced actin stress fibers and membrane ruffling in fibroblasts; assay type: cell-based; details: 4 hours at 37° C. with peptide, then 10 min 25 ng/ml LPA
Procedure: Evaluation of actin stress fibers content. Swiss 3T3 mouse fibroblasts were maintained in DMEM containing 10% FCS for 6 days and then starved for 12 hours. Actin stress fibers content was evaluated in permeabilized cells with TRITC-labeled phalloidin. Analysis was performed by using a Zeiss LSM confocal microscope.

[9] = pretreated lymphocytes injected iv

Molecule	prevention of the increase of ζ PKC kinase activity induced by CCL21 (ζ PKC)	LFA-1 high affinity state triggering by CCL21 [1]	rapid adhesion induced by CCL21 on high density of ICAM-1 [2]	rapid adhesion induced by CCL21 on low density of ICAM-1 [2]	LFA-1 rapid lateral mobility (generation of LFA-1 clusters) induced by CCL21 (LFA-1 lateral mobility)	rolling and arrest of circulating lymphocytes on PP-HEV [3, 9]	ζ PKC translocation to the plasma membrane induced by CCL21 [4]	other results
O=c1cc(N2CCOCC2)oc2c(-c3ccccc3)cccc12 [LY294002]	~62%							
COC[C@H]1OC(=O)c2coc3c2[C@@]1(C)C1=C(C3=O)[C@@H]2CCC(=O)[C@@]2(C)C[C@H]1OC(C)=O [Wortmannin]	about 51%							
C[C@@H](N)[C@H]1CC[C@H](C(=O)Nc2ccncc2)CC1 [Y27632, reference compound]		neither LFA-1 affinity triggering (FIG. 2H) nor induction of lateral mobility were blocked	did not inhibit	did not inhibit	neither LFA-1 affinity triggering (FIG. 2H) nor induction of lateral mobility were blocked	rolled and adhered normally		
P1-RhoA 23-40: Penetratin-1 fused through a glycine to human RhoA aa 23-40 (IVFSKDQFPEVYVPTVFE, Domain I); aa 34			blocked adhesion triggering in a dose-dependent manner	prevented in a dose-dependent manner	prevented		blocked	blockade of ζ PKC translocation to the plasma membrane, densitometric analysis ([4]; 100 μM): about 82%; recruitment/arrest of Ag-stimulated lymphocytes in inflamed brain microvessels [5]: blocks recruitment; binding of RhoA to Citron [6]: blocked; percentage of cells displaying only rolling on PP-HEV ([3]; 50 μM pretreatment): increased; inhibition of stable arrest of lymphocytes on PP-HEV ([3]; 50 μM pretreatment, P<0.01): about 75%; lymphocyte tethering and interaction with vessels ([3]; pretreated lymphocytes injected iv, 50 μM): did not influence
P1-RhoA 75-92: Penetratin-1 fused through a glycine to human RhoA aa 75-92 (PDTDVILMCFSIDSPDSL, Domain II); aa 34			ineffective	unable to block	did not prevent	did not affect	did not prevent	binding of RhoA to Rhotekin [7]: blocked
P1: Plasma membrane translocating sequence from third helix of Antennapedia homeodomain, RQIKIWFQNRRMKWKK; control peptide [reference compound]		did not prevent	ineffective	unable to block	did not prevent	did not affect	did not prevent	accumulation of actin stress fibers upon LPA triggering [8]: completely ineffective
